Measurements reported in patent publication US20250129135A1, “Multi-Agonist and Use Thereof” (priority 2021, published 2025).
Starred links: 1 amine or outer side, 2 acyl side, 3 side chain; linkers in the order of their positions; H or OH if unused. Non-standard residues stand in square brackets, D forms with d. Residues, ends and D or L forms follow the SMILES beside them. Groups on a side chain read outwards from the residue. *: point of attachment. C20 diacid = O=C(O)CCCCCCCCCCCCCCCCCCC(=O)*; γGlu = O=C(O)[C@H](CCC(=O)[*:2])N[*:1]; αMeF = C[C@](N)(Cc1ccccc1)C(=O)O; αMeL = CC(C)C[C@](C)(N)C(=O)O; AEEA = NCCOCCOCC(=O)O; Ac3c = NC1(C(=O)O)CC1; Aib = CC(C)(N)C(=O)O

Legend:
[1] = test system: human primary liver cells; type: cell-based; settings: for Rel. A (Relative Activity) on human primary liver cells: relative to GCG
Procedure: The cAMP levels produced by compounds on human primary liver cells were determined in this experiment. Human primary liver cells were purchased from Lonza (cell product number HUCPG).
Frozen human primary liver cells were placed in a 37° C. constant temperature water bath for rapid thawing and recovery. The cell solution was transferred to 10 ml of HBSS for resuspension, and centrifuged at 1000 rpm for 5 minutes at room temperature.
(§1) 10 μL cell suspension was added to each well in the 384 well plate. […] Using the ECHO liquid transfer system, 100 nL of the prepared compound solution was added to the corresponding cell suspensions in the 384 well plate, rotated and shaken at 1000 rpm for 1 minute to mix evenly, and then incubated at room temperature for 60 minutes. 10 μL of detection reagent was added to each well after drug incubation was completed, and incubation was performed for 60 minutes.

[2] = test system: RIN-m5F cells; type: cell-based, rat; settings: for Rel. A (Relative Activity) on RIN-m5F: relative to GLP-1(7-37)
Procedure: This experiment measured the cAMP level produced by the compound on RIN-mF cells.
Frozen […] cells were placed in a 37° C. constant temperature water bath for rapid thawing and recovery. The cell solution was transferred to 10 ml of HBSS for resuspension, and centrifuged at 1000 rpm for 5 minutes at room temperature.
as §1, with “to each wells after drug” for “to each well after drug”

[3] = target: Human GLP-1R (Homo sapiens, UniProt P43220); assay: cAMP (HTRF) activity in HEK-293 cells stably overexpressing human GLP-1 receptor; type: cell-based; set-up: expressed in transfected cells; host or cells: HEK-293; settings: for Human GLP-1R Rel. A (Relative Activity): EC50 of human GLP-1 (7-37) / EC50 of compound
Human GLP-1R, sequence (P43220 24-463): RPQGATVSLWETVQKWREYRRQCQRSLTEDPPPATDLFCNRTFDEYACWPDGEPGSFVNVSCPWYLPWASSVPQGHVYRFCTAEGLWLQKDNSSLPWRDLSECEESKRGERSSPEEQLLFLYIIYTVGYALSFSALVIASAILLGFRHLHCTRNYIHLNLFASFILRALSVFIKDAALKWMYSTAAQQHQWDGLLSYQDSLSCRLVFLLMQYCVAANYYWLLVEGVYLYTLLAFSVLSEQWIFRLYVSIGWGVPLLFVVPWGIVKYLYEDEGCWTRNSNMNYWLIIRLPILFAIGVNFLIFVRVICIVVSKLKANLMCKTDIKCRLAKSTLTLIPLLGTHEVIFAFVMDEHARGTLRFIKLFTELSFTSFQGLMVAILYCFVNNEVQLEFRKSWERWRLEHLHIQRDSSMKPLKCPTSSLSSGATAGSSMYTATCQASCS
Procedure: (§2) By measuring the cAMP signal response levels of the aforementioned cells, the agonistic activity of individual compound towards the corresponding receptor was determined. The intracellular cAMP content was measured using reagent kit available from Cisbio Corp. based on HTRF (homogeneous time-resolved fluorescence) technology.
(§3) The cell fluid was transferred to 10 ml of HBSS for resuspension, and centrifuged at 1000 rpm for 5 minutes at room temperature.
(§4) 10 μL cell suspension was added to each well in the 384 well plate. […] Using the ECHO liquid transfer system, 100 nL of the prepared compound solution was added to the corresponding cell suspensions in the 384 well plate, rotated and shaken at 1000 rpm for 1 minute to mix evenly, and then incubated at room temperature for 60 minutes. 10 μL of detection reagent was added to each well after drug incubation was completed, and incubation was performed in the kit at room temperature for 60 minutes. […] GraphPad Prism 5 plotting software was used to create compound concentration response curves and EC50 (nM) values was calculated.

[4] = test system: 3T3-L1 adipocytes; settings: for Rel. A (Relative Activity) on 3T3-L1 adipocyte: relative to GIP
Procedure: Mouse 3T3-L1 precursor adipocytes can be induced to differentiate into mature adipocytes. […] After the cells became full and contacted with each other, DMEM differentiation medium containing 20% FBS, 0.5 mM IBMX, 0.4 ug/mL dexamethasone, and 5 ug/mL insulin was used to induce differentiation of 3T3-L1 adipocyte. After 5 days of induction and cultivation, DMEM medium containing […], 4 ug/ml insulin, and 10 uM rosiglitazone was used to continue induction and cultivation for 3 days. Then, DMEM medium containing 10% FBS was used to continue cultivation for 2-3 days to induce mature 3T3-L1 adipocytes.
The cAMP level produced by the compound on 3T3-L1 adipocytes was determined in this experiment. The tested compound solution was diluted step by step according to a concentration gradient of 3 times, to obtain a total of 10 series of concentration solutions. The solutions were added to induced mature 3T3-L1 adipocytes and incubated at room temperature for 60 minutes. 10 μL detection reagent in the kit was added to each well after drug incubation, and incubated at room temperature for another 60 minutes. […] GraphPad Prism 5 plotting software was used to create compound concentration-effect curves and calculation was performed.

[5] = target: T1, Human GCG R (Homo sapiens, UniProt P47871); assay: cAMP (HTRF) activity in HEK-293 cells stably overexpressing human GCG receptor; type: cell-based; settings: EC50 of human GCG / EC50 of compound
T1 construct: expressed in transfected cells; host or cells: HEK-293
T1 sequence (P47871 26-477): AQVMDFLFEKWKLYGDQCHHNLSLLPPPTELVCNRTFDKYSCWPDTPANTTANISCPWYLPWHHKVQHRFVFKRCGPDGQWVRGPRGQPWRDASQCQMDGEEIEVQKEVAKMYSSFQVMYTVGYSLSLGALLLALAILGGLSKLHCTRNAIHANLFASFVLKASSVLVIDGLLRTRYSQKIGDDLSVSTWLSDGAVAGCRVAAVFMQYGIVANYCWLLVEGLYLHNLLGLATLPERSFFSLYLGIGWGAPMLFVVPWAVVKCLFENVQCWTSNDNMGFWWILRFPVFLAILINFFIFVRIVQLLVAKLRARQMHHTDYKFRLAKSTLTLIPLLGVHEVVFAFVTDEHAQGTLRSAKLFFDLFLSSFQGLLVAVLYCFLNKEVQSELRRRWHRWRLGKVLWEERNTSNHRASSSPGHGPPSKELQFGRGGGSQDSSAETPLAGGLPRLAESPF
Procedure: as §2, §3, §4

[6] = target: T2, Human GIP R (Homo sapiens, UniProt P48546); assay: cAMP (HTRF) activity in CHO cells stably overexpressing GIP receptor; type: cell-based; settings: for Human GIP R Rel. A (Relative Activity): EC50 of human GIP / EC50 of compound; for EC50: stable transfected cell cAMP activity, at least 3 independent tests
T2 construct: expressed in transfected cells; host or cells: CHO
T2 sequence (P48546 22-466): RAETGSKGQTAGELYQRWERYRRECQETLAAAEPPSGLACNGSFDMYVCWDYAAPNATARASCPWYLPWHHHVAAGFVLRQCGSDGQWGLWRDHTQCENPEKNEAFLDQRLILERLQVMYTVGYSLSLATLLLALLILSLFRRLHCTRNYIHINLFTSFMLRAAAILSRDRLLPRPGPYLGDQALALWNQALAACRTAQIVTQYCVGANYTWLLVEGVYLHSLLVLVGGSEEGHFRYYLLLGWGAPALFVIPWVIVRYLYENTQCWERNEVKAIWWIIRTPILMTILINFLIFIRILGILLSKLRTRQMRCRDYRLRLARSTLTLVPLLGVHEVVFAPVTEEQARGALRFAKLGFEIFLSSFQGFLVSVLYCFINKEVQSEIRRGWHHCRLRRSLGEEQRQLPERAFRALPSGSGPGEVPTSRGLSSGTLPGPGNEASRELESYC
Procedure: as §2, §3, §4

EC50 [1] | EC50 [2] | Human GLP-1R Rel. A (Relative Activity) [3] | Human GCG R Rel. A (Relative Activity) [5] | Human GIP R Rel. A (Relative Activity) [6] | EC50 [6] | EC50 ([3]; stable transfected cell cAMP activity, at least 3 independent tests) | Compound | Rel. A (Relative Activity) on human primary liver cells [1] | Rel. A (Relative Activity) on RIN-m5F [2] | EC50 [4] | Rel. A (Relative Activity) on 3T3-L1 adipocyte [4]
649 pM | 202 pM | 141.94% | 167.65% | 1392.31% | 13 pM |  | CC[C@H](C)[C@H](NC(=O)[C@H](Cc1ccccc1)NC(=O)[C@H](C)NC(=O)C(C)(C)NC(=O)[C@H](CCC(N)=O)NC(=O)[C@H](C)NC(=O)[C@H](CCCCNC(=O)COCCOCCNC(=O)COCCOCCNC(=O)CC[C@H](NC(=O)CCCCCCCCCCCCCCCCCCC(=O)O)C(=O)O)NC(=O)[C@H](CCCCN)NC(=O)[C@H](CC(=O)O)NC(=O)[C@H](CC(C)C)NC(=O)[C@](C)(CC(C)C)NC(=O)[C@@H](NC(=O)[C@H](CO)NC(=O)[C@H](Cc1ccc(O)cc1)NC(=O)[C@H](CC(=O)O)NC(=O)[C@H](CO)NC(=O)[C@@H](NC(=O)[C@](C)(Cc1ccccc1F)NC(=O)[C@@H](NC(=O)CNC(=O)[C@H](CCC(N)=O)NC(=O)C(C)(C)NC(=O)[C@@H](N)Cc1ccc(O)cc1)[C@@H](C)O)[C@@H](C)O)[C@@H](C)CC)C(=O)N[C@@H](CCC(=O)O)C(=O)N[C@@H](Cc1ccccc1)C(=O)N[C@@H](CC(C)C)C(=O)N[C@@H](CC(C)C)C(=O)N[C@@H](CCC(=O)O)C(=O)NCC(=O)N[C@@H](CCCNC(=N)N)C(=O)N1CCC[C@H]1C(=O)N[C@@H](CO)C(=O)N[C@@H](CO)C(=O)NC(C)(C)C(=O)N[C@@H](Cc1c[nH]cn1)C(=O)N1CCC[C@H]1C(=O)N1CCC[C@H]1C(=O)N1CCC[C@H]1C(=O)N[C@@H](CO)C(N)=O [Compound 25] | 599.54% | 510.89% | 918 pM | 414.16%
5210 pM | 784 pM | 183.33% | 37.01% | 1645.45% | 11 pM |  | CC[C@H](C)[C@H](NC(=O)[C@H](Cc1ccccc1)NC(=O)[C@H](C)NC(=O)C(C)(C)NC(=O)[C@H](CCC(N)=O)NC(=O)[C@H](C)NC(=O)[C@H](CCCCNC(=O)COCCOCCNC(=O)COCCOCCNC(=O)CC[C@H](NC(=O)CCCCCCCCCCCCCCCCCCC(=O)O)C(=O)O)NC(=O)[C@H](CCCCN)NC(=O)[C@H](CC(=O)O)NC(=O)[C@H](CC(C)C)NC(=O)[C@](C)(CC(C)C)NC(=O)[C@@H](NC(=O)[C@H](CO)NC(=O)[C@H](Cc1ccc(O)cc1)NC(=O)[C@H](CC(=O)O)NC(=O)[C@H](CO)NC(=O)[C@@H](NC(=O)[C@](C)(Cc1ccccc1)NC(=O)[C@@H](NC(=O)CNC(=O)[C@H](CCC(N)=O)NC(=O)C(C)(C)NC(=O)[C@@H](N)Cc1ccc(O)cc1)[C@@H](C)O)[C@@H](C)O)[C@@H](C)CC)C(=O)N[C@@H](CCC(=O)O)C(=O)N[C@@H](Cc1ccccc1)C(=O)N[C@@H](CC(C)C)C(=O)N[C@@H](CC(C)C)C(=O)N[C@@H](CCC(=O)O)C(=O)N[C@@H](CO)C(=O)NC(C)(C)C(=O)N1CCC[C@H]1C(=O)N[C@@H](CO)C(=O)N[C@@H](CO)C(=O)NCC(=O)N[C@@H](C)C(=O)N1CCC[C@H]1C(=O)N1CCC[C@H]1C(=O)NC1(C(=O)N[C@@H](CO)C(N)=O)CC1 [Compound 28] (H-Y[Aib]QGT[αMeF]TSDYSI[αMeL]LDKK([AEEA-AEEA-γGlu-C20 diacid])AQ[Aib]AFIEFLLES[Aib]PSSGAPP[Ac3c]S-NH2) | 74.74% | 131.63% | 9850 pM | 38.61%
2930 pM | 633 pM | 275.00% | 82.61% | 58.58% |  | 16 pM | CC[C@H](C)[C@H](NC(=O)[C@H](Cc1ccccc1)NC(=O)[C@H](C)NC(=O)C(C)(C)NC(=O)[C@H](CCC(N)=O)NC(=O)[C@H](C)NC(=O)[C@H](CCCCNC(=O)COCCOCCNC(=O)COCCOCCNC(=O)CC[C@H](NC(=O)CCCCCCCCCCCCCCCCCCC(=O)O)C(=O)O)NC(=O)[C@H](CCCCN)NC(=O)[C@H](CC(=O)O)NC(=O)[C@H](CC(C)C)NC(=O)[C@H](Cc1ccccc1)NC(=O)[C@@H](NC(=O)[C@H](CO)NC(=O)[C@H](Cc1ccc(O)cc1)NC(=O)[C@H](CC(=O)O)NC(=O)[C@H](CO)NC(=O)[C@@H](NC(=O)[C@](C)(Cc1ccccc1)NC(=O)[C@@H](NC(=O)CNC(=O)[C@H](CCC(N)=O)NC(=O)C(C)(C)NC(=O)[C@@H](N)Cc1ccc(O)cc1)[C@@H](C)O)[C@@H](C)O)[C@@H](C)CC)C(=O)N[C@@H](CCC(=O)O)C(=O)N[C@@H](Cc1ccc(O)cc1)C(=O)N[C@@H](CC(C)C)C(=O)N[C@@H](CC(C)C)C(=O)N[C@@H](CCC(=O)O)C(=O)N[C@@H](CO)C(=O)NC(C)(C)C(=O)N1CCC[C@H]1C(=O)N[C@@H](CO)C(=O)N[C@@H](CO)C(=O)NCC(=O)N[C@@H](C)C(=O)N1CCC[C@H]1C(=O)N1CCC[C@H]1C(=O)NC1(C(=O)N[C@@H](CO)C(N)=O)CC1 [Compound 29] (H-Y[Aib]QGT[αMeF]TSDYSIFLDKK([AEEA-AEEA-γGlu-C20 diacid])AQ[Aib]AFIEYLLES[Aib]PSSGAPP[Ac3c]S-NH2; N-terminus assumed) | 132.89% | 163.03% | 20700 pM | 18.41%
